The values that follow come from ChEMBL document CHEMBL5244275, “Geminal Diheteroatomic Motifs: Some Applications of Acetals, Ketals, and Their Sulfur and Nitrogen Homologues in Medicinal Chemistry and Drug Design” (J Med Chem, 2021).

A short description of series [1]: Aqueous stability of the compound at pH 7 assessed as half-life. The class given is physicochemical. The following applies: aqueous solution.
Series [2] has as its system Candida albicans. The experiment in a line: Antifungal activity against Candida albicans GS. The series is classed as functional, organism-based.
Series [3] deals with Candida albicans. The series can be described thus: Fungicidal activity against Candida albicans. The class given is functional.
Series [4] is described as follows: Clearance in Chimpanzee at 0.5 mg/kg, iv bolus injection. The series is classed as ADME, organism-based, Pan troglodytes. The settings on record: in vivo.
Series [5] in a line: Clearance in Chimpanzee at 0.5 mg/kg administered as iv infusion. The settings on record: in vivo. The class given is ADME, organism-based, Pan troglodytes.
Series [6] can be described thus: in vivo. The settings on record: chimpanzee, iv, 0.5 mg/kg.
The nature of series [7]: in vivo. The settings on record: chimpanzee, iv, 0.5 mg/kg. This is another data set of the same source.
Series [8] in a line: Oral bioavailability in rat relative to urinary excretion. The class given is ADME, organism-based. The following applies: urine.
Series [9] is described as follows: Oral bioavailability in rat relative to plasma exposure. The class given is ADME, organism-based.
Series [10] is described as follows: Stability of the compound assessed as compound hydrolysis by measuring relative rate constant by titrimetric method. The series is classed as physicochemical.
The nature of series [11]: Stability of the compound in 20% aqueous dioxane solution at 30 degreeC assessed as compound hydrolysis by measuring rate constant. The series is classed as physicochemical. The settings on record: buffer.
Series [12] in a line: Stability of the compound in 50% dioxane solution at 30 degreeC assessed as compound hydrolysis by measuring rate constant. The series is classed as physicochemical.

As for `CC1(C)S[C@@H]2[C@H](NC(=O)[C@H](N)c3ccccc3)C(=O)N2[C@H]1C(=O)O` [AMPICILLIN], the half-life in series [1] amounted to 15 min.

In the series with Candida albicans [2], `CC[C@H](C)C[C@H](C)CCCCCCCCC(=O)N[C@H]1C[C@@H](O)[C@@H](OCCN)NC(=O)[C@@H]2[C@@H](O)CCN2C(=O)[C@H]([C@H](O)CCN)NC(=O)[C@H]([C@H](O)[C@@H](O)c2ccc(O)cc2)NC(=O)[C@@H]2C[C@@H](O)CN2C(=O)[C@H]([C@@H](C)O)NC1=O` had an IC50 of 1 nM. In the series on Candida albicans [3], this compound yielded a minimal fungicidal concentration (MFC) of under 0.06 µg/mL. Moreover, the clearance in [4] worked out at 0.58 mL/min/kg; in series [5] it was 0.56 mL/min/kg. In addition, the half-life in “in vivo [6]” was 168 min; in “in vivo [7]”, 156 min.

With `Nc1ccn([C@@H]2CO[C@H](CO)O2)c(=O)n1` [TROXACITABINE], the bioavailability came out at 41% in series [8] and 37% in [9].

For `CC1(C)OCCO1`, the K in series [10] is 5.4 10^4No_unit.

As for `COc1ccc(C2(c3ccc(OC)cc3)OCCO2)cc1`, the results for the K in [11] and in series [12] were 8.5 10^-1/M/s and 1.2 10^-1/M/s, respectively.
